Here are results for 21 compounds from patent US12281079B2, “Quinoline derivatives, processes for their preparation and uses thereof for the treatment of cancer” (Lead Discovery Center GmbH, priority 2019, dated 2025).

A value given as a limit tells only on which side of the number the result lay.

Assay [1] deals with mitochondrial RNA polymerase (POLRMT) (Mus musculus, UniProt Q8BKF1). Kind of assay: Homogeneous TR-FRET assay for mitochondrial transcription activity. It counts as biochemical. The note with it: homogeneous TR-FRET assay according to Example 4. The method in brief:
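Read-out is TR-FRET (ex 340, em 665 nm) from two adjacent labelled DNA probes annealing to the 407 bp transcript after EDTA/700 mM NaCl stop. Reaction: murine POLRMT, TFAM, TFB2M and LSP plasmid template, compound 10 μM or serial dilution, 10 min rt preincubation, 500 μM each nucleotide, 2 h rt.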

The test system of assay [2] is mitochondrial transcription (7S RNA) in HeLa cells. Kind of assay: Quantitative real time-PCR assay of inhibition of mitochondrial transcription (7S RNA) in HeLa cells. It counts as cell-based. The note with it: Homo sapiens, 4 h compound incubation, according to Example 5, read-out: cellular qPCR assay. The method in brief: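 HeLa cells were exposed to compound dilution series or DMSO for 4 h, then RNA was extracted, normalized and reverse-transcribed. TaqMan qRT-PCR measured short-lived 7S RNA, with POLRMT as nuclear-transcription readout and TBP as housekeeping gene. Biological triplicates were analyzed by ΔΔCt and reported as Rq % (2−ΔΔCt).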

Sequence of mitochondrial RNA polymerase (POLRMT) (Q8BKF1 42-1207): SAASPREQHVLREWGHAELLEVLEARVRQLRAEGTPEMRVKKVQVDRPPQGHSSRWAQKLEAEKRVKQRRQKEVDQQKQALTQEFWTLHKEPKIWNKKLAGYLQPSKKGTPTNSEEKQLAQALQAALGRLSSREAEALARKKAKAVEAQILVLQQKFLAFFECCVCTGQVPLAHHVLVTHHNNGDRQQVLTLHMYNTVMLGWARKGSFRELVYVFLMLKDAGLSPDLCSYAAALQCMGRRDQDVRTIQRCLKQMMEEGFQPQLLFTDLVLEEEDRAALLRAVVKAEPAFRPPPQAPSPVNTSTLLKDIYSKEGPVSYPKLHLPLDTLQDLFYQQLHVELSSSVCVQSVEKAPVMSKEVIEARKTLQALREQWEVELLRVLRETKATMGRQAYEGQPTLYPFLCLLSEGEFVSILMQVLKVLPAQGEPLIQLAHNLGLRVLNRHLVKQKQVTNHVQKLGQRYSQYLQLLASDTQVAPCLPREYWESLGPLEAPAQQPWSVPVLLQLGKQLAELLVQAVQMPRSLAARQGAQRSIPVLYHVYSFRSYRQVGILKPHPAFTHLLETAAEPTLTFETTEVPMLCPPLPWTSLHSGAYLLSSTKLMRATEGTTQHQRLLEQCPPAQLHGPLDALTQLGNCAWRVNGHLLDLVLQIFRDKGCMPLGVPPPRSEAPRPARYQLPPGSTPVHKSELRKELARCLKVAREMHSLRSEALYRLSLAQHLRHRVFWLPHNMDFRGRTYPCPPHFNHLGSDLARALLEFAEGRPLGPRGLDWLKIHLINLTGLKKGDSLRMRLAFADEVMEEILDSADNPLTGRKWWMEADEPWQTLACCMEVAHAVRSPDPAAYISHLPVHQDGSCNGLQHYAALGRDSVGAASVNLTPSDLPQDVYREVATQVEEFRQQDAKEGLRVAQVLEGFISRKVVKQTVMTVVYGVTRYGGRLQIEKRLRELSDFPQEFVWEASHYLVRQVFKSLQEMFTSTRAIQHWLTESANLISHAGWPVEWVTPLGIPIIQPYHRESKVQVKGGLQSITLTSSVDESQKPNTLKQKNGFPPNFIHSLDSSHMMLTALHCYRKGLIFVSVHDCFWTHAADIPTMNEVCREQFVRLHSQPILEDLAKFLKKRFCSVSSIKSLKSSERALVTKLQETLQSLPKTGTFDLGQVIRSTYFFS

For `CCNC(=O)[C@@H](C)Oc1ccc2c(-c3ccc(F)cc3Cl)ccnc2c1` [Compound 131], the IC50 in assay [1] was 1000 to 10000 nM; in assay [2] it was 50 to 500 nM.

`C[C@@H](Oc1ccc2c(-c3c(Cl)cc(F)cc3Cl)ccnc2c1)C(=O)N1CCC[C@H](C(=O)O)C1` [Compound 132, (3S)-1-[(2R)-2-[[4-(2,6-dichloro-4-fluoro-phenyl)-7-quinolyl]oxy]propanoyl]piperidine-3-carboxylic acid]: the figures for the IC50 in assay [1] and in assay [2] were less than 20 nM and less than 10 nM, respectively.

Consider `Cc1cscc1-c1ccnc2cc(O[C@H](C)C(=O)N3CCC[C@H](CC(=O)O)C3)ccc12` [Compound 133, 2-[(3R)-1-[(2R)-2-[[4-(4-methyl-3-thienyl)-7-quinolyl]oxy]propanoyl]-3-piperidyl]acetic acid], for which the figures for the IC50 in assay [1] and in assay [2] were 100 to 1000 nM and 50 to 500 nM, respectively.

In the case of `C[C@@H](Oc1ccc2c(-c3c(Cl)cc(F)cc3Cl)ccnc2c1)C(=O)N1CCC[C@](C)(C(=O)O)C1` [Compound 173, (3S)-1-[(2R)-2-[[4-(2,6-dichloro-4-fluoro-phenyl)-7-quinolyl]oxy]propanoyl]-3-methyl-piperidine-3-carboxylic acid], the IC50 in assay [1] was less than 20 nM; in assay [2], less than 10 nM.

With `Cc1cc(F)cc(C)c1-c1ccnc2cc(O[C@H](C)C(=O)N3CCC[C@@](C)(C(=O)O)C3)ccc12` [Compound 175, (3R)-1-[(2R)-2-[[4-(4-fluoro-2,6-dimethyl-phenyl)-7-quinolyl]oxy]propanoyl]-3-methyl-piperidine-3-carboxylic acid], the IC50 in assay [1] is less than 20 nM; in assay [2] it was less than 10 nM.

On to `Cc1cc(F)cc(C)c1-c1ccnc2cc(O[C@H](C)C(=O)N3CCCC[C@@H]3C)ccc12` [Compound 176, (2R)-2-[[4-(4-fluoro-2,6-dimethyl-phenyl)-7-quinolyl]oxy]-1-[(2S)-2-methyl-1-piperidyl]propan-1-one], for which the IC50 in assay [1] was less than 20 nM; in assay [2], 10 to 50 nM.

Turning to `Cc1cc(F)cc(C)c1-c1ccnc2cc(O[C@H](C)C(=O)N3CCOCC3)ccc12` [Compound 178, (2R)-2-[[4-(4-fluoro-2,6-dimethyl-phenyl)-7-quinolyl]oxy]-1-morpholino-propan-1-one], the IC50 in assay [1] was less than 20 nM; in assay [2] it was 10 to 50 nM.

As for `Cc1cc(F)cc(C)c1-c1ccnc2cc(O[C@H](C)C(=O)N3CCC4(CC3)COC4)ccc12` [Compound 179, (2R)-2-[[4-(4-fluoro-2,6-dimethyl-phenyl)-7-quinolyl]oxy]-1-(2-oxa-7-azaspiro[3.5]nonan-7-yl)propan-1-one], the results for the IC50 in assay [1] and in assay [2] were less than 20 nM and less than 10 nM, respectively.

Turning to `Cc1cc(F)cc(C)c1-c1ccnc2cc(O[C@H](C)C(=O)N3CCC4(CCNC4=O)CC3)ccc12` [Compound 181, 8-[(2R)-2-[[4-(4-fluoro-2,6-dimethyl-phenyl)-7-quinolyl]oxy]propanoyl]-2,8-diazaspiro[4.5]decan-1-one], the IC50 was less than 20 nM in assay [1] and less than 10 nM in assay [2].

Take `Cc1cc(F)cc(C)c1-c1ccnc2cc(O[C@H](C)C(=O)N3CCC[C@H](CC(=O)O)C3)ccc12` [Compound 183, 2-[(3R)-1-[(2R)-2-[[4-(4-fluoro-2,6-dimethyl-phenyl)-7-quinolyl]oxy]propanoyl]-3-piperidyl]acetic acid]: the IC50 in assay [1] was less than 20 nM; in assay [2], less than 10 nM.

Take `Cc1cc(F)cc(C)c1-c1ccnc2cc(O[C@H](C)C(=O)N3CCC[C@](C)(C(=O)O)C3)ccc12` [Compound 184, (3S)-1-[(2R)-2-[[4-(4-fluoro-2,6-dimethyl-phenyl)-7-quinolyl]oxy]propanoyl]-3-methyl-piperidine-3-carboxylic acid]: the IC50 in assay [1] is less than 20 nM; in assay [2], less than 10 nM.

Turning to `CC(=O)N(O)[C@H]1CCCN(C(=O)[C@@H](C)Oc2ccc3c(-c4c(C)cc(F)cc4C)ccnc3c2)C1` [Compound 185, N-[(3S)-1-[(2R)-2-[[4-(4-fluoro-2,6-dimethyl-phenyl)-7-quinolyl]oxy]propanoyl]-3-piperidyl]-N-hydroxy-acetamide], the IC50 in assay [1] was less than 20 nM; in assay [2] it was less than 10 nM.

With `Cc1cc(F)cc(C)c1-c1ccnc2cc(O[C@H](C)C(=O)N3CCCC[C@H]3C)ccc12` [Compound 187, (2R)-2-[[4-(4-fluoro-2,6-dimethyl-phenyl)-7-quinolyl]oxy]-1-[(2R)-2-methyl-1-piperidyl]propan-1-one], the IC50 in assay [1] was less than 20 nM; in assay [2], less than 10 nM.

Take `C[C@@H](Oc1ccc2c(-c3c(Cl)cc(F)cc3Cl)ccnc2c1)C(=O)N1CCC[C@@](C)(C(=O)O)C1` [Compound 188, (3R)-1-[(2R)-2-[[4-(2,6-dichloro-4-fluoro-phenyl)-7-quinolyl]oxy]propanoyl]-3-methyl-piperidine-3-carboxylic acid]: the values for the IC50 in assay [1] and in assay [2] were less than 20 nM and 10 to 50 nM, respectively.

Take `C[C@@H](Oc1ccc2c(-c3ccc(F)cc3Cl)ccnc2c1)C(=O)N1CCC[C@](C)(C(=O)O)C1` [Compound 189, (3S)-1-[(2R)-2-[[4-(2-chloro-4-fluoro-phenyl)-7-quinolyl]oxy]propanoyl]-3-methyl-piperidine-3-carboxylic acid]: the IC50 in assay [1] is less than 20 nM; in assay [2], less than 10 nM.

Take `C[C@@H](Oc1ccc2c(-c3c(Cl)cc(F)cc3Cl)ccnc2c1)C(=O)N1CCC[C@H](CC(=O)O)C1` [Compound 192, 2-[(3R)-1-[(2R)-2-[[4-(2,6-dichloro-4-fluoro-phenyl)-7-quinolyl]oxy]propanoyl]-3-piperidyl]acetic acid]: the IC50 is 20 to 100 nM in assay [1] and less than 10 nM in assay [2].

As for `C[C@@H](Oc1ccc2c(-c3ccc(F)cc3Cl)ccnc2c1)C(=O)N1CCCC2(CC2C(=O)O)C1` (stereo partly drawn) [Compound 193, 5-[rac-(2R)-2-[[4-(2-chloro-4-fluoro-phenyl)-7-quinolyl]oxy]propanoyl]-5-azaspiro[2.5]octane-2-carboxylic acid], the IC50 in assay [1] was 20 to 100 nM; in assay [2], 10 to 50 nM.

For `C[C@@H](Oc1ccc2c(-c3c(Cl)cc(F)cc3Cl)ccnc2c1)C(=O)N1CCCC(C(C)(C)C(=O)O)C1` (stereo partly drawn) [Compound 195, 2-methyl-2-[1-[rac-(2R)-2-[[4-(2,6-dichloro-4-fluoro-phenyl)-7-quinolyl]oxy]propanoyl]-3-piperidyl]propanoic acid], the figures for the IC50 in assay [1] and in assay [2] were 20 to 100 nM and 10 to 50 nM, respectively.

`C[C@@H](Oc1ccc2c(-c3ccc(F)cc3Cl)ccnc2c1)C(=O)N1CCCC(C(C)(C)C(=O)O)C1` (stereo partly drawn) [Compound 197, 2-methyl-2-[1-[rac-(2R)-2-[[4-(2-chloro-4-fluoro-phenyl)-7-quinolyl]oxy]propanoyl]-3-piperidyl]propanoic acid]: the IC50 in assay [1] lay in the range of 20 to 100 nM; in assay [2], 10 to 50 nM.

Consider `C[C@@H](Oc1ccc2c(-c3ccc(F)cc3Cl)ccnc2c1)C(=O)N1CCC[C@@](C)(C(=O)O)C1` [Compound 198, (3R)-1-[(2R)-2-[[4-(2-chloro-4-fluoro-phenyl)-7-quinolyl]oxy]propanoyl]-3-methyl-piperidine-3-carboxylic acid], for which the figures for the IC50 in assay [1] and in assay [2] were 20 to 100 nM and less than 10 nM, respectively.

As to `C[C@@H](Oc1ccc2c(-c3c(Cl)cc(F)cc3Cl)ccnc2c1)C(=O)N1CCCC[C@@H]1C` [Compound 199, (2R)-2-[[4-(2,6-dichloro-4-fluoro-phenyl)-7-quinolyl]oxy]-1-[(2S)-2-methyl-1-piperidyl]propan-1-one], the IC50 is 20 to 100 nM in assay [1] and less than 10 nM in assay [2].
